Measured values: patent publication US20250066383A1, “PDE 7 MODULATOR COMPOUNDS” (Omeros Corporation, priority 2023, published 2025)
pIC50: −log10 of the molar value.

Columns and labels:
PDE7A = PDE7A (Homo sapiens (Human), UniProt Q13946); test: PDE7A assay: inhibition of PDE7A hydrolysis of [3H]cAMP to [3H]AMP (scintillation proximity, yttrium silicate beads); format: biochemical; conditions: 16 nM [3H]cAMP, 30° C., 20 minutes; read-out: PDE 7A IC50
Method: (§1) PDE7A and PDE7B Assay. Compounds were tested for their activity by measuring the inhibition of PDE7A or PDE7B hydrolysis of [3H]cAMP to [3H]AMP. Generally, eight dilutions of compound were assayed in 50 mM Tris-HCl pH 7.5, 8.3 mM MgCl2, 0.5 mg/mL BSA, 1.7 mM EGTA, 16 nM [3H]cAMP, and 1% DMSO. PDE7A or PDE7B (typically 1-5 ng/mL) (BPS BioSciences, CA) is added to initiate the reaction. The reaction was incubated at 30° C. for 20 minutes. PDE7A and PDE7B hydrolysis was terminated by the addition of yttrium silicate beads (GE Healthcare, RPNQ0150) and counted on a Wallac Microbeta scintillation counter, 1-2 hours following the addition of the beads. Data was analyzed using XLfit […] from which ICso values were obtained.

PDE7B = PDE7B (Homo sapiens (Human), UniProt Q9NP56); test: PDE7B assay: inhibition of PDE7B hydrolysis of [3H]cAMP to [3H]AMP (scintillation proximity, yttrium silicate beads); format: biochemical; conditions: 16 nM [3H]cAMP, 30° C., 20 minutes; read-out: PDE 7B IC50
Method: as §1

Chain of PDE7B (Q9NP56 whole entry): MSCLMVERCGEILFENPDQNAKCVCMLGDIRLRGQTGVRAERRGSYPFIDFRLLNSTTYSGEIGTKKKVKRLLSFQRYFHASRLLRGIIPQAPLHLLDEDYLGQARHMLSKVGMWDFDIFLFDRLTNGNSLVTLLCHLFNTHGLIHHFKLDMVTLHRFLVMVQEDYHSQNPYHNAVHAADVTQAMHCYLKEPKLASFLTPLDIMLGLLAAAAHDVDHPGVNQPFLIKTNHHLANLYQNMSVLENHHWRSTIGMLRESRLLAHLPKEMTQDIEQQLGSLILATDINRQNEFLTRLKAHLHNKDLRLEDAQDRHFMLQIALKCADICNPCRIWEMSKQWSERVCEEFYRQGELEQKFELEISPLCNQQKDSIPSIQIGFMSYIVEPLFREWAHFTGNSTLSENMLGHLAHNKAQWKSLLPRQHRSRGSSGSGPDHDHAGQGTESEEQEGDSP
Chain of PDE7A (Q13946 whole entry): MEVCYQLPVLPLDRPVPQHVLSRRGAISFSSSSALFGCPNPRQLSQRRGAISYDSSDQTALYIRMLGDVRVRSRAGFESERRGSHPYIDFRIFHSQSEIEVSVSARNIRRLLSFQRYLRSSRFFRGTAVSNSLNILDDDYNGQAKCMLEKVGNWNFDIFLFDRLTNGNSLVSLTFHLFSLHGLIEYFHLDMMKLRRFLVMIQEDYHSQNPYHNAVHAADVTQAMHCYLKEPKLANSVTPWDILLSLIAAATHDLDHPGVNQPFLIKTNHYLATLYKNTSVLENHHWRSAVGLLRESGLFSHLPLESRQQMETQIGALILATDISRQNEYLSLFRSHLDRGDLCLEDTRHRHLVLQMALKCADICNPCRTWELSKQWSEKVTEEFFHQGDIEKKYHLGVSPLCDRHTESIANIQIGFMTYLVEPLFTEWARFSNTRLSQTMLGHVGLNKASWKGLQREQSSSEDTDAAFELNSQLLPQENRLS

SMILES | pIC50 (PDE7A) | pIC50 (PDE7B)
Cc1nn(-c2ccccn2)c2sc(C(=O)N[C@H]3CC[C@H](N4CCOCC4)CC3)cc12 [Compound I-1, 3-methyl-N-((1r,4r)-4-morpholinocyclohex-yl)-1-(pyridin-2-yl)-1H-thieno[2,3-c]pyr-azole-5-carboxamide] | 6.30 to 7.00 | 6.30 to 7.00
CC(=O)N1CCN([C@H]2C[C@H](NC(=O)c3cc4c(C)nn(-c5ccccc5Cl)c4s3)C2)CC1 [Compound I-5, N-((1r,3r)-3-(4-acetyl-piperazin-1-yl)cyclo-butyl)-1-(2-chlorophen-yl)-3-methyl-1H-thieno [2,3-c]pyrazole-5-carboxamide] | 7.00 to 7.52 | 7.00 to 7.52
Cc1nn(-c2ccccc2Cl)c2sc(C(=O)N[C@H]3C[C@H](N4CCN(C5CC5)CC4)C3)cc12 [Compound I-6, 1-(2-chlorophenyl)-N-((1r,3r)-3-(4-cyclo-propylpiperazin-1-yl)-cyclobutyl)-3-methyl-1H-thieno[2,3-c]pyr-azole-5-carboxamide] | 7.00 to 7.52 | 7.00 to 7.52
Cc1nn(-c2ccccc2)c2sc(C(=O)N[C@H]3CC[C@H](N4CCOCC4)CC3)cc12 [Compound I-8, 3-methyl-N-((1r,4r)-4-morpholinocyclohex-yl)-1-phenyl-1H-thieno [2,3-c]pyrazole-5-carboxamide] | 6.30 to 7.00 | 6.30 to 7.00
Cc1nn(C2C[C@@H](C)O[C@@H](C)C2)c2sc(C(=O)N[C@H]3CC[C@H](N4CCN(C(C)C)CC4)CC3)cc12 (stereo partly drawn) [II-1, 1-((2r,6s)-2,6-dimeth-yltetrahydro-2H-pyr-an-4-yl)-N-((1r,4r)-4-(4-isopropylpiperazin-1-yl)cyclohexyl)-3-methyl-1H-thieno [2,3-c]pyrazole-5-carboxamide] | 6.30 to 7.00 | 5.60 to 6.30
CC(=O)N1CCN([C@H]2CC[C@H](NC(=O)c3cc4c(C)nn(C5C[C@@H](C)O[C@@H](C)C5)c4s3)CC2)CC1 (stereo partly drawn) [II-2, N-((1r,4r)-4-(4-acetylpiperazin-1-yl)-cyclohexyl)-1-((2r,6s)-2,6-dimeth-yltetrahydro-2H-pyr-ran-4-yl)-3-methyl-1H-thieno[2,3-c]pyr-azole-5-carboxamide] | 7.00 to 7.52 | 6.30 to 7.00
Cc1nn(CC(C)C)c2sc(C(=O)N[C@H]3CC[C@H](N4CCN(C(C)C)CC4)CC3)cc12 [II-5, 1-isobutyl-N-((1r,4r)-4-(4-isopropylpiper-azin-1-yl)cyclohexyl)-3-methyl-1H-thieno [2,3-c]pyrazole-5-carboxamide] | 7.00 to 7.52 | 7.52 to 8.00
Cc1nn(CC(C)C)c2sc(C(=O)N[C@H]3CC[C@H](N4CCN(CC(F)(F)F)CC4)CC3)cc12 [II-7, 1-isobutyl-3-methyl-N-((1r,4r)-4-(4-(2,2,2-trifluoroethyl)piper-azin-1-yl)cyclohexyl)-1H-thieno[2,3-c]pyr-azole-5-carboxamide] | 7.00 to 7.52 | 7.00 to 7.52
Cc1nn(CC(C)C)c2sc(C(=O)N[C@H]3CC[C@H](N4CCN(CC(F)F)CC4)CC3)cc12 [II-8, N-((1r,4r)-4-(4-(2,2-difluoroethyl)piper-azin-1-yl)cyclohexyl)-1-isobutyl-3-methyl-1H-thieno[2,3-c]pyr-azole-5-carboxamide] | 7.00 to 7.52 | 7.00 to 7.52
Cc1nn(C2CCC(F)(F)CC2)c2sc(C(=O)N[C@H]3CC[C@H](N4CCN(CC(F)F)CC4)CC3)cc12 [II-11, 1-(4,4-difluorocyclo-hexyl)-N-((1r,4r)-4-(4-(2,2-difluoroeth-yl)piperazin-1-yl)-cyclohexyl)-3-meth-yl-1H-thieno[2,3-c] pyrazole-5-carbox-amide] | 7.52 to 8.00 | 7.52 to 8.00
Cc1nn(CC(C)C)c2sc(C(=O)N[C@H]3CC[C@H](N4CCOCC4)CC3)cc12 [II-14] | 7.00 to 7.52 | 7.00 to 7.52
CC(=O)N1CCN([C@H]2CC[C@H](NC(=O)c3cc4c(C)nn(CC(C)C)c4s3)CC2)CC1 [II-16, N-((1r,4r)-4-(4-acet-ylpiperazin-1-yl)-cyclohexyl)-1-iso-butyl-3-methyl-1H thieno[2,3-c]pyrazole-5-carboxamide] | 7.52 to 8.00 | 7.00 to 7.52
Cc1nn(C2CCC(F)(F)CC2)c2sc(C(=O)N[C@H]3C[C@H](N4CCOCC4)C3)cc12 [II-18, 1-(4,4-difluorocyclo-hexyl)-3-methyl-N-((1r,3r)-3-morpho-linocyclobutyl)-1H-thieno[2,3-c]pyrazole-5-carboxamide] | 7.52 to 8.00 | 7.52 to 8.00
Cc1nn(CC(C)C)c2sc(C(=O)N[C@H]3CC[C@H](N4CCN(C(=O)N(C)C)CC4)CC3)cc12 [II-19, N-((1r,4r)-4-(4-(dimethylcarbamo-yl)piperazin-1-yl)-cyclohexyl)-1-iso-butyl-3-methyl-1H-thieno[2,3-c]pyrazole-5-carboxamide] | 7.52 to 8.00 | 7.00 to 7.52

Results, then the compound that gave them:

pIC50 (PDE7A) | pIC50 (PDE7B) | SMILES
7.52 to 8.00 | 7.52 to 8.00 | Cc1nn(-c2ccccc2Cl)c2sc(C(=O)N[C@H]3CC[C@H](N4CCOCC4)CC3)cc12 [Compound I-2, 1-(2-chlorophenyl)-3-methyl-N-((1r,4r)-4-morpholinocyclohex-yl)-1H-thieno[2,3-c] pyrazole-5-carbox-amide]
7.52 to 8.00 | 7.00 to 7.52 | Cc1nn(-c2ccccc2Cl)c2sc(C(=O)N[C@H]3C[C@H](N4CCOCC4)C3)cc12 [Compound I-3, 1-(2-chlorophenyl)-3-methyl-N-((1r,3r)-3-morpholinocyclobut-yl)-1H-thieno[2,3-c] pyrazole-5-carbox-amide]
> 8.00 | > 8.00 | CC(=O)N1CCN([C@H]2CC[C@H](NC(=O)c3cc4c(C)nn(-c5ccccc5Cl)c4s3)CC2)CC1 [Compound I-4, N-((1r,4r)-4-(4-acetyl-piperazin-1-yl)cyclo-hexyl)-1-(2-chloro-phenyl)-3-methyl-1H-thieno[2,3-c]pyrazole-5-carboxamide]
7.52 to 8.00 | 7.52 to 8.00 | Cc1nn(-c2ccccc2Cl)c2sc(C(=O)N[C@H]3CC[C@H](N4CC(OC(F)F)C4)CC3)cc12 [Compound I-7, 1-(2-chlorophenyl)-N-((1r,4r)-4-(3-(difluoro-methoxy)azetidin-1-yl)-cyclohexyl)-3-methyl-1H-thieno[2,3-c]pyr-azole-5-carboxamide]
7.52 to 8.00 | 7.52 to 8.00 | Cc1nn(C2CCC(F)(F)CC2)c2sc(C(=O)N[C@H]3C[C@H](N4CCC(F)(F)C4)C3)cc12 [II-3, 1-(4,4-difluorocyclo-hexyl)-N-(3-(3,3-difluoropyrrolidin-1-yl)cyclobutyl)-3-methyl-1H-thieno [2,3-c]pyrazole-5-carboxamide]
7.52 to 8.00 | 7.00 to 7.52 | Cc1nn(CC(C)C)c2sc(C(=O)N[C@H]3CC[C@H](N4CC(F)(F)C4)CC3)cc12 [II-4, N-((1r,4r)-4-(3,3-difluoroazetidin-1-yl)-cyclohexyl)-1-isobut-yl-3-methyl-1H-thieno [2,3-c]pyrazole-5-carboxamide]
7.52 to 8.00 | 7.00 to 7.52 | Cc1nn(CC(C)C)c2sc(C(=O)N[C@H]3CC[C@H](N4CCN(C5CC5)CC4)CC3)cc12 [II-6, N-((1r,4r)-4-(4-cyclo-propylpiperazin-1-yl)-cyclohexyl)-1-isobut-yl-3-methyl-1H-thieno[2,3-c]pyrazole-5-carboxamide]
> 8.00 | > 8.00 | CC(=O)N1CCN([C@H]2CC[C@H](NC(=O)c3cc4c(C)nn(C5CCC(F)(F)CC5)c4s3)CC2)CC1 [II-9, N-((1r,4r)-4-(4-acet-ylpiperazin-1-yl)-cyclohexyl)-1-(4,4-difluorocyclohexyl)-3-methyl-1H-thieno [2,3-c]pyrazole-5-carboxamide]
> 8.00 | > 8.00 | Cc1nn(C2CCC(F)(F)CC2)c2sc(C(=O)N[C@H]3CC[C@H](N4CCN(C(C)C)CC4)CC3)cc12 [II-10, 1-(4,4-difluorocyclo-hexyl)-N-((1r,4r)-4-(4-isopropylpiper-azin-1-yl)cyclohex-yl)-3-methyl-1H-thieno[2,3-c]pyra-zole-5-carboxamide]
> 8.00 | 7.52 to 8.00 | Cc1nn(C2CCC(F)(F)CC2)c2sc(C(=O)N[C@H]3CC[C@H](N4CCN(CC(F)(F)F)CC4)CC3)cc12 [II-12, 1-(4,4-difluorocyclo-hexyl)-N-((1r,4r)-4-(4-(2,2-trifluoroeth-yl)piperazin-1-yl)-cyclohexyl)-3-meth-yl-1H-thieno[2,3-c] pyrazole-5-carbox-amide]
7.52 to 8.00 | 7.52 to 8.00 | Cc1nn(C2CCC(F)(F)CC2)c2sc(C(=O)N[C@H]3CC[C@H](N4CCOCC4)CC3)cc12 [II-13, 1-(4,4-difluorocyclo-hexyl)-3-methyl-N-((1r,4r)-4-morpho-linocyclohexyl)-1H-thieno[2,3-c]pyrazole-5-carboxamide]
7.52 to 8.00 | 7.52 to 8.00 | Cc1nn(C2CCC(F)(F)CC2)c2sc(C(=O)N[C@H]3CC[C@H](N4CCN(C5CC5)CC4)CC3)cc12 [II-15, N-((1r,4r)-4-(4-cyclo-propylpiperazin-1-yl)cyclohexyl)-1-(4,4-difluorocyclohexyl)-3-methyl-1H-thieno [2,3-c]pyrazole-5-carboxamide]
> 8.00 | > 8.00 | Cc1nn(C2CCC(F)(F)CC2)c2sc(C(=O)N[C@H]3CC[C@H](N4CC(F)(F)C4)CC3)cc12 [II-17, N-((1r,4r)-4-(3,3-difluoroazetidin-1-yl)cyclohexyl)-1-(4,4-difluorocyclohexyl)-3-methyl-1H-thieno [2,3-c]pyrazole-5-carboxamide]
